Type in all cases: biochemical
Experiment [1] concerns the target T1, TAFI purifié (Homo sapiens, UniProt Q96IY4).
T1 sequence (Q96IY4 115-423): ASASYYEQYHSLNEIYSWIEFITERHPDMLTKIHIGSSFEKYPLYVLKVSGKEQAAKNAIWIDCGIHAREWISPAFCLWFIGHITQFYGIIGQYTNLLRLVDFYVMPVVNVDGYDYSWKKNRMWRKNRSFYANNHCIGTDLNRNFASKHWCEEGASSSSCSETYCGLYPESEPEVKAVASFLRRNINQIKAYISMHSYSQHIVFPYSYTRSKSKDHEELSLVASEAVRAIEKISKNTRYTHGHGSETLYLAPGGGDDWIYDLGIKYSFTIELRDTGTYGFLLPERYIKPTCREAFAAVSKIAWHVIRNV
In words: Colorimetric TAFI activity assay on purified TAFI with different substrates (thrombin/thrombomodulin activation, carboxypeptidase A revelation). The following applies: substrate 5 mM; 6,5 µg/ml TAFI purifié in hépès buffer; read at 320-350 nm.

The target of experiment [2] is T2, TAFI plasmatique (Homo sapiens, UniProt Q96IY4).
T2 construct: from tissue; host or cells: normal plasma pool, diluted 1/20
T2 sequence (Q96IY4 115-423): T1 sequence (Q96IY4 115-423)
Briefly: Decoloration of single-amino-acid substrate AAFR by activated plasma TAFI. The source says: (§1) L'exemple ci-après vise à démontrer la nécessité d'utiliser la méthode et les composés de formule (I) de l'invention pour doser spécifiquement l'activité des CPN ou U, en particulier le TAFI, par rapport à d'autres carboxypeptidases basiques. 1. Le dosage est dans ce cas réalisé avec un substrat de la famille de composés décrites par Mock dans (14). Ce substrat est constitué d'un seul acide aminé porteur du radical chromophore anizylazoformyl (portion CH3OC6H4-N = N-CO-). L'acide aminé choisi est l'arginine, un acide aminé basique normalement hydrolysé par les carboxypeptidases B (1). Ce substrat est dénommé ci-après AAFR (AnizylAzoFormyArginine) ou MxAFR (4-MethoxyphenylAzoformylarginine). Ce substrat (0,25 mM) est mis en présence soit d'un échantillon de TAFI plasmatique, soit d'une solution de carboxypeptidase B pancréatique porcine (Sigma - Réf. C9584) à 5,2 mol/l. La diminution de coloration de chacun des deux échantillons est suivie au spectrophotomètre. Chacun des échantillons est traité selon le protocole suivant : • a) échantillon de départ : • TAFI plasmatique (présent dans un pool normal de plasmas - dilué au 1/20) ou • Carboxypeptidase B pancréatique porcine 5,2 mol/l (dans tampon hépès) • b) activation avec complexe thrombine-thrombomoduline-CaCl2 (voir exemple 2) pour l'échantillon de TAFI plasmatique. • c) addition de AAFR à 5 mM. • d) lecture DO à 382 nm.

Experiment [3] has as its system carboxypeptidase B pancréatique porcine. Briefly: Decoloration of single-amino-acid substrate AAFR by pancreatic carboxypeptidase B. The following applies: CPB porcine 5,2 mol/l in hépès buffer; AAFR 5 mM (0,25 mM); 382 nm.
Source text: as §1

The target in experiment [4] is T1, TAFI purifié. In words: Specificity test on purified TAFI solution: MxAFR versus MxPAFFK. The following applies: for DO de départ / DO finale / Delta DO: TAFI purifié 18 µg/ml, activated, MxAFR 27 mM without CPA, MxPAFFK with CPA added, 382 nm; for hydrolyse par le TAFI activé: conclusion in words, purified TAFI 18 µg/ml. The source says:
2. La méthode de l'invention est ensuite appliquée sur une solution de TAFI purifiée, soit avec un substrat de formule (I) (MxPAFFK), soit avec le MxAFR pour vérifier que le TAFIa hydrolyse néanmoins un composé de formule (I). L'activation de la coagulation est déclenchée par le complexe thrombine-thrombomoduline-CaCl2 (voir protocole exemple 2). La diminution de coloration de chacun des deux échantillons est suivie au spectrophotomètre. • a) échantillons de départ : solution de TAFI purifié à18 µg/ml (dilué dans tampon hépès). • b) activation de la coagulation. • c) addition de MxAFR 27 mM ou MxPAFFK (témoin) concentration du MxAFFK. • d) addition de CPA dans l'échantillon contenant le MxPAFFK. • e) lecture DO à 382 nm.

Experiment [5] deals with T1, TAFI purifié. Briefly: Calibration range, thrombin/thrombomodulin method, TAFI-deficient plasma spiked with purified TAFI. The following applies: substrate 5 mM. As to the method:
L'échantillon de plasma testé est divisé en deux aliquotes, l'un étant additionné de PIC (Calbiochem - Réf. 217359), l'autre de tampon hépès. Les deux aliquotes sont ensuite traités de manière identique selon le principe suivant :
• 150 µl de plasma dilué au 1/20 en tampon hépès (ou TAFI purifié à 13 µg/ml en tampon hépès. • 10 µl PIC ou H2O • 5 minutes à température ambiante • 150 µl tampon activateur de la coagulation • 10 minutes à température ambiante • 100 µl PPACK + 100 µl MxPAFFR (substrat) (5 mM)
• 30 minutes à température ambiante • 100 µl HCl 1M + 100 µl NaOH 1M
• Dilution au 1/3 en tampon hépès • Lecture de la DO à 382 nm • 25 µl Carboxypeptidase A • Lecture de la DO à 382 nm sur 1 minute
La figure 3 ci-après représente une courbe d'étalonnage établie à partir d'un plasma déficient en TAFI surchargé avec du TAFI purifié pour obtenir une gamme de concentration en TAFI allant de 0 à 26 µg/ml. Le composé de formule I utilisé est le MxPAAFR à une concentration de 5 mM. Les Δ DO mesurés selon la méthode de l'invention sont reportés dans le tableau III suivant : TABLEAU III : […]

The mark [6] stands for this setting: TAFIa du plasma (normal plasma pool diluted 1/20, thrombine-thrombomoduline-CaCl2 activation), AAFR 5 mM (0,25 mM), 382 nm.

The values that follow come from patent EP1406920B1, “NOVEL CHROMOGENIC SUBSTANCES AND USE THEREOF FOR THE DETERMINATION OF CARBOXYPEPTIDASE ACTIVITIES” (Diagnostica Stago, priority 2001, dated 2003).

`Cc1cccc(N=NC(=O)N[C@@H](Cc2ccccc2)C(=O)N[C@@H](CCCNC(=N)N)C(=O)O)c1C` [2,3 DMPAFFR, 2,3-dimethylphenylazoformylphenylalanylarginine]: in experiment [1], the “DO de départ” value amounted to 0.318, the DO finale is reported as 0.089 and the “Delta DO” value turned out to be 0.229.
`COc1ccc(N=NC(=O)N[C@@H](CCCNC(=N)N)C(=O)O)cc1` [AAFR, 4-MethoxyphenylAzoformylarginine]: in experiment [2] (setting [6]), the “DO de départ” value worked out at 1.730, the DO finale amounted to 1.681 and the “Delta DO” value amounted to 0.049. For the same molecule, the “hydrolyse par le TAFI activé” value in experiment [2] (conclusion in words, plasma TAFIa) is “n'hydrolyse pas”. In addition, in experiment [3], the “Delta DO” value was 0.608. In experiment [4], the “DO de départ” value was determined as 1.356, the DO finale is 1.300, the “Delta DO” value stood at 0.056 and the “hydrolyse par le TAFI activé” value was “n'hydrolyse pas”.
Take `COc1ccc(N=NC(=O)N[C@@H](Cc2ccccc2)C(=O)N[C@@H](CCCNC(=N)N)C(=O)O)cc1` [MxPAAFR, 4-methoxyphenylazoformylphenylalanylarginine]: the “Δ DO mesuré” value in experiment [5] (concentration en TAFIa 0 µg/ml) is recorded as 0.168; in experiment [5] (concentration en TAFIa 1.63 µg/ml), 0.217; in experiment [5] (concentration en TAFIa 3.25 µg/ml) it was 0.273; in experiment [5] (concentration en TAFIa 6.5 µg/ml), 0.399; in experiment [5] (concentration en TAFIa 13 µg/ml) it was 0.624; in experiment [5] (concentration en TAFIa 26 µg/ml), 0.995.
For the molecule `Cc1ccc(N=NC(=O)N[C@@H](Cc2ccccc2)C(=O)N[C@@H](CCCNC(=N)N)C(=O)O)c(C)c1` [2,4 DMPAFFR, 2,4-dimethylphenylazoformylphenylalanylarginine], in experiment [1], the “DO de départ” value came to 1.004, the DO finale is reported as 0.087 and the “Delta DO” value is 0.917.
For `Cc1ccc(C)c(N=NC(=O)N[C@@H](Cc2ccccc2)C(=O)N[C@@H](CCCNC(=N)N)C(=O)O)c1` [2,5 DMPAFFR, 2,5-dimethylphenylazoformylphenylalanylarginine], in that order: 0.973, 0.131 and 0.842.
Consider `COc1ccc(N=NC(=O)N[C@@H](Cc2ccccc2)C(=O)N[C@@H](CCCCN)C(=O)O)cc1` [MxPAFFK, 4-methoxyphenylazoformylphenylalanyllysine], for which, in experiment [1], the “DO de départ” value is 0.973, the DO finale worked out at 0.131 and the “Delta DO” value is on record as 0.842. In experiment [4], the “DO de départ” value came to 1.397, the DO finale was found to be 0.849, the “Delta DO” value turned out to be 0.548 and the “hydrolyse par le TAFI activé” value is given as “actif”.
